What all share (format): cell-based
Experiment [1] deals with K. pneumoniae 6299. Briefly: MIC of ceftazidime alone and in combination with compounds (synergy), broth microdilution. How it is done:
(§1) Compounds of the present invention were assessed against genotyped bacterial strains alone or in combination with the β-lactam ceftazidime (CAZ). […] Briefly, compounds alone according to the invention were prepared in DMSO and spotted (2 μL each) on sterile polystyrene plates (Corning, 3788). […] Log phase bacterial suspensions were adjusted to a final density of 5×10^5 cfu/mL in cation-adjusted Mueller-Hinton broth (Becton-Dickinson) and added to each well (98 μL). Microplates were incubated for 16-20 h at 35° C. in ambient air. The MIC of the compounds was defined as the lowest concentration of said compounds that prevented bacterial growth as read by visual inspection.
(In general: Dilution methods test growth across graded concentrations, often in twofold steps.)

The test system of the next experiment is P. aeruginosa UFR48. Described as above. The following applies: Pseudomonas aeruginosa, UFR48, read-out: MIC of CAZ. The procedure:
as §1

Experiment [2] deals with E. cloacae P99. Described as above. Conditions: MIC of ceftazidime with compound fixed at 4 μg/mL; strain P99 (AmpC).
In experiment [3] the test system is P. aeruginosa CIP105250. Described as above. The following applies: MIC of ceftazidime with compound fixed at 4 μg/mL; strain CIP105250 (OXA-15). The procedure:
as §1

Experiment [4] deals with P. aeruginosa CIP107051. The description is as above. Conditions: MIC of ceftazidime with compound fixed at 4 μg/mL; strain CIP107051 (TEM-24). How it is done: as §1
The subject of experiment [5] is K. pneumoniae BAA-1898. Described as above. Conditions: MIC of ceftazidime with compound fixed at 4 μg/mL; strain BAA-1898 (TEM-1, SHV-11, SHV-12, KPC-2). How it is done:
as §1

Experiment [6] has as its system E. coli 190317. Described as above. Conditions: MIC of ceftazidime with compound fixed at 4 μg/mL; strain 190317 (TEM-1, SHV-12, CTX-M-15, OXA-1).
Experiment [7] deals with P. aeruginosa CIP105250. Kind of experiment: microbe, parasite or virus in culture. Conditions: strain CIP105250 (OXA-15). How it is done:
as §1

The subject of experiment [8] is K. pneumoniae 6299. Briefly: microbe, parasite or virus in culture. The following applies: strain 6299 (TEM-1, SHV-11, OXA-163). The procedure:
as §1

For another experiment, the system named is E. coli 131119. Kind of experiment: microbe, parasite or virus in culture. The following applies: strain 131119 (TEM-1, OXA-48). The procedure:
as §1

Experiment [9] deals with K. pneumoniae BAA-1898. Kind of experiment: microbe, parasite or virus in culture. The following applies: strain BAA-1898 (TEM-1, SHV-11, SHV-12, KPC-2). How it is done: as §1
In a further experiment the test system is E. coli UFR74. Kind of experiment: MIC of compounds alone, broth microdilution. The following applies: strain UFR74 (SHV-1, DHA-1). How it is done:
as §1

Another experiment has as its system K. pneumoniae 200047. Kind of experiment: MIC of compounds alone, broth microdilution. The following applies: strain 200047 (TEM-1, SHV-32, CTX-M-15, OXA-1). How it is done: as §1
The next experiment concerns E. cloacae UFR70. Kind of experiment: MIC of compounds alone, broth microdilution. The following applies: strain UFR70 (TEM-1, CTX-M-15, CMY-2, OXA-1, Porin loss). How it is done:
as §1

For a further experiment, the system named is E. coli UFR32. Kind of experiment: MIC of compounds alone, broth microdilution. Conditions: strain UFR32 (TEM-1, VEB-1, OXA-10). The procedure: as §1
The test system of a further experiment is E. cloacae 260508. Briefly: MIC of compounds alone, broth microdilution. The following applies: strain 260508 (TEM-1, CTX-M-15). The procedure: as §1
The test system of experiment [10] is P. aeruginosa CIP107051. Briefly: MIC of compounds alone, broth microdilution. The following applies: strain CIP107051 (TEM-24). How it is done: as §1
The next experiment concerns K. pneumoniae 160143. Briefly: MIC of compounds alone, broth microdilution. The following applies: strain 160143 (TEM-1, SHV-1, CTX-M-15, KPC-2, OXA-1). The procedure: as §1
The subject of experiment [11] is E. cloacae P99. Briefly: MIC of compounds alone, broth microdilution. Conditions: strain P99 (AmpC). The procedure:
as §1

The test system of experiment [12] is E. coli 190317. Briefly: MIC of compounds alone, broth microdilution. Conditions: strain 190317 (TEM-1, SHV-12, CTX-M-15, OXA-1). The procedure:
as §1

Another experiment relates to K. oxytoca UFR21. Kind of experiment: MIC of compounds alone, broth microdilution. The following applies: strain UFR21 (TEM-1, CTX-M-15, OXA-48). How it is done: as §1
The subject of another experiment is E. coli RGN238. Kind of experiment: MIC of compounds alone, broth microdilution. The following applies: strain RGN238 (OXA-1). How it is done:
as §1

In the next experiment the test system is E. cloacae UFR85. Briefly: MIC of compounds alone, broth microdilution. Conditions: strain UFR85 (TEM-1, CTX-M-15, derepressed AmpC). The procedure:
as §1

For the next experiment, the system named is K. pneumoniae UFR77. Kind of experiment: MIC of compounds alone, broth microdilution. Conditions: strain UFR77 (CMY-2). The procedure:
as §1

The next experiment relates to E. coli UFR18. Kind of experiment: MIC of compounds alone, broth microdilution. The following applies: strain UFR18 (CTX-M-15, OXA-204). The procedure: as §1
Another experiment has as its system C. murliniae 210102. Kind of experiment: MIC of compounds alone, broth microdilution. The following applies: strain 210102 (VIM-4). The procedure: as §1
The next experiment concerns E. cloacae UFR38. Kind of experiment: MIC of compounds alone, broth microdilution. Conditions: strain UFR38 (CTX-M-15, NDM-1). How it is done:
as §1

The test system of the next experiment is K. pneumoniae UFR68. Kind of experiment: MIC of compounds alone, broth microdilution. Conditions: strain UFR68 (TEM-1, SHV-11, CTX-M-15, KPC-3). The procedure:
as §1

A further experiment concerns E. coli UFR61O. Briefly: MIC of compounds alone, broth microdilution. The following applies: strain UFR61O (TEM-1, KPC-2). How it is done: as §1
Another experiment deals with E. coli UFR52. Kind of experiment: MIC of compounds alone, broth microdilution. Conditions: strain UFR52 (TEM-1, SHV-12, IMP-8). The procedure: as §1
The subject of the next experiment is K. pneumoniae UFR24. Kind of experiment: MIC of compounds alone, broth microdilution. The following applies: strain UFR24 (TEM-1, SHV-2, SHV-11, OXA-1, OXA-48, OXA-47). The procedure: as §1

Some results are limits rather than exact numbers.

Results on two molecules are retold here after patent US10570131B2, “Heterocyclic compounds and their use in preventing or treating bacterial infections” (MUTABILIS, priority 2015, dated 2020).

As usually defined, the MIC is the lowest concentration found to suppress growth.

As to `CC(C)(O/N=C(\C(=O)N[C@@H]1C(=O)N2C(C(=O)[O-])=C(C[n+]3ccccc3)CS[C@H]12)c1csc(N)n1)C(=O)O` [CAZ, ceftazidime, reference compound], the MIC in the experiment with K. pneumoniae 6299 [1] (Klebsiella pneumoniae, 6299, read-out: MIC of CAZ) was 256 µg/mL; with P. aeruginosa UFR48, 256 µg/mL.
Consider `NCCON=C1C[C@@H](C(N)=O)N2C[C@@H]1N(OS(=O)(=O)[O-])C2=O.O=C(O)C(F)(F)F.[Na+]` [Example 4, sodium and 2,2,2-trifluoroacetate [(2S, 5S)-4-(2-ammoniumethoxyimino)-2-carbamoyl-7-oxo-1,6-diazabicyclo[3.2.1]octan-6-yl] sulfate], for which the “MIC, combination of CAZ and compounds of the invention at 4 μg/mL” value is 0.25 µg/mL in the experiment on E. cloacae P99 [2]; 8 µg/mL in the experiment on P. aeruginosa CIP105250 [3]; 0.25 µg/mL with K. pneumoniae 6299 [1] (MIC of ceftazidime with compound fixed at 4 μg/mL, strain 6299 (TEM-1, SHV-11, OXA-163)); 8 µg/mL with P. aeruginosa CIP107051 [4]; no more than 0.125 µg/mL in the experiment on K. pneumoniae BAA-1898 [5]; less than 0.25 µg/mL in the experiment on E. coli 190317 [6]. Also, the “MIC compounds of the invention alone” value with P. aeruginosa CIP105250 [7], in the experiment with K. pneumoniae 6299 [8], with E. coli 131119, in the experiment on K. pneumoniae BAA-1898 [9], in the experiment on E. coli UFR74 and in the experiment on K. pneumoniae 200047 was greater than 32 µg/mL in each case. Also, the “MIC compounds of the invention alone” value was greater than 32 µg/mL in the experiment on E. cloacae UFR70; 4 µg/mL with E. coli UFR32; 16 µg/mL in the experiment with E. cloacae 260508; 32 µg/mL in the experiment with P. aeruginosa CIP107051 [10]; greater than 32 µg/mL in the experiment with K. pneumoniae 160143; 16 µg/mL in the experiment with E. cloacae P99 [11]. The “MIC compounds of the invention alone” value was 4 µg/mL in the experiment with E. coli 190317 [12]; greater than 32 µg/mL with K. oxytoca UFR21; greater than 32 µg/mL in the experiment with E. coli RGN238; greater than 32 µg/mL in the experiment on E. cloacae UFR85; greater than 32 µg/mL in the experiment on K. pneumoniae UFR77; 4 µg/mL with E. coli UFR18. The “MIC compounds of the invention alone” value in the experiment on C. murliniae 210102 is greater than 32 µg/mL; in the experiment on E. cloacae UFR38, 2 µg/mL; with K. pneumoniae UFR68, greater than 32 µg/mL; with E. coli UFR61O it was greater than 32 µg/mL; in the experiment on E. coli UFR52, 8 µg/mL; in the experiment with K. pneumoniae UFR24, greater than 32 µg/mL.
